What was measured:
HCT 15 cells [1] = test: Apoptotic index (TUNEL) with or without induced C/EBPβ overexpression; format: cell-based, human; conditions: 5-FU 1.5 μM or doxorubicin 0.1 μM, 24 hours
Description: Control HCT 15 cells and the sense C/EBPβ cell line were induced with 10 μM muristerone A and exposed to either 5-FU (1.5 μM) or doxorubicin (0.1 μM) for 24 hours. The apoptotic index was calculated as described in FIG. 4C.
Finally, the functional role of C/EBPβ was examined in the apoptotic signaling pathway by generating lines of HCT 15 cells that were stably transfected with the human C/EBPβ cDNA, in both the sense and antisense orientation, under the control of an ecdysone inducible promoter. To avoid the possibility that constitutively expressed C/EBPβ might induce cell death, and ecdysone (muristerone A)-inducible expression system (Invitrogen, Carlsbad, Calif.) was used. Human C/EBPβ cDNA was subcloned into pIND at convenient enzyme cleavage ites. Constructs, containing sense and antisense C/EBPβ sequences were verified by double-stranded DNA sequencing. Before transfection, pIND-C/EBPβ constructs were linearized with Pme I and purified. HCT 15 cells were transfected with 5 μg of pVgRXR (Invitrogen) and 10 μg of pIND-C/EBPβ using CELLFECTIN according to manufacture's instructions. After 24 hours, cells were shifted to medium supplemented with 1 mg/ml Geneticin and […] puromycin (GIBCO BRL) to select for transfectant clones. After 2 weeks, antibiotic-resistant cells were subcloned by limiting dilution. The expression of C/EBPβ protein and the subsequent induction of p21^WAF1/CIP1 was determined following induction with 10 μM muristerone A for 24 hours and Western blot analysis.

HCT 15-derived tumors = test: HCT 15 tumor xenografts in athymic mice; format: in vivo
Description: HCT 15-derived tumors were generated as described above. Animals were then treated with pyrrolidinedithiocarbamate, in the presence or absence of 5-FU, for 3 weeks. At this point, treatments were discontinued in animals receiving the combined treatment of pyrrolidinedithiocarbamate and 5-FU for 2 months. All other treatment groups received both 5-FU and pyrrolidinedithiocarbamate for the remaining 3 weeks.
(§5) Male athymic Balb/c nu/nu mice were obtained from the Harlan Sprague-Dawley Company at 4–6 weeks of age and were quarantined for at least 2 weeks before the study. […] HCT 116 and HCT 15 CRC cell lines were grown in DMEM supplemented with 10% FBS as described above. Cells were harvested through two consecutive trypsinizations, centrifuged at 300 g for 5 minutes, washed twice, and resuspended in sterile phosphate buffered saline. One ×10^6 cells in 0.2 ml were injected subcutaneously between the scapula of 7- to 10-week-old male nude mice.
(§6) Tumor volumes were estimated weekly by measuring the maximal length, width, and height. Once tumors reached a mean size of 120 to 150 mm^3, animals received either weekly i.p. injections of pyrrolidinedithiocarbamate (70 μM) or vitamin E (3 mM), 5-FU (40 mg/kg) or saline, or a combination of pyrrolidinedithiocarbamate or vitamin E and 5-FU or 6 weeks. In cross-over experiments, animals received the above treatments for three weeks (with the exception of vitamin E), and then were crossed-over to either the combination treatment of pyrrolidinedithiocarbamate and 5-FU (saline, pyrrolidinedithiocarbamate or 5-FU alone) or discontinued treatment pyrrolidinedithiocarbamate and 5-FU) for the remaining three weeks of the experiment. […] Tumor volumes were recorded weekly until termination of the study.
Tumor tissues were fixed overnight in 4% (v/v) paraformaldehyde and embedded in paraffin according to standard histological procedures. […] The proliferative index (BrDU) and the apoptotic index (TUNEL) were estimated by the percentage of cells scored under a microscope at 200-fold magnification.

[2] = system: HCT 116 CRC tumor xenografts; test: HCT 116 tumor xenografts in athymic mice; format: in vivo; conditions: for tumor volume compared to saline-treated controls: single agents, 6 weeks
Description: HCT 116 CRC cells were injected subcutaneously between the scapula of nu/nu mice. Once tumors reached approximately 150 mm^3, the animals either received weekly i.p. injections of pyrrolidinedithiocarbamate (70 μM) or vitamin E (3 MM), 5-FU (40 mg/kg) or saline, or both an antioxidant and 5-FU. Tumor volume was calculated weekly.
as §5, §6
Tumor tissues were fixed overnight in 4% (v/v) paraformaldehyde and embedded in paraffin according to standard histological procedures. […] TdT labeling of fragmented DNA (TUNEL) was performed as described. The proliferative index (BrDU) and the apoptotic index (TUNEL) were estimated by the percentage of cells scored under a microscope at 200-fold magnification.

[3] = system: advanced, frequently mutant p53-containing colorectal cancer tumors; conditions: patients with advanced; cited from earlier work
HCT 116 CRC cells = test: Flow cytometric cell cycle analysis (propidium iodide); format: cell-based, human; conditions: HCT 116, pyrrolidinedithiocarbamate 70 μM or vitamin E 3 mM, 24 hours
Description: (§1) FIG. 1B is a series of flow cytometric analyses that indicate that antioxidants induce G1 cell cycle arrest and apoptosis in CRC cells. […] Twenty-four hours following antioxidant exposure, cells were harvested and flow cytometric analysis performed.
(§2) DNA Content of nuclei was determined as described [I. G. Nicoletti et al., J Immunol. Methods. 139, 271 (1991)] by lysing plasma membranes, staining nuclear DNA with propidium iodide ([…]), and quantitating the relative DNA content of nuclei using the Becton Dickinson FACSORT fluorescence-activated cell sorter. The proportion of nuclei in each phase of the cell cycle was determined using MODFIT-DNA analysis software. Detection of apoptotic cells either by fluorescence microscopy or by flow cytometry was performed using the ApopTag Plus In Situ Apoptosis Detection Kit (Oncor, Gaithersburg, Md.) as described in the manufacturer's protocol. Briefly, gigoxygenin-labeled nucleotides were added to free 3′OH groups of DNA produced by DNA fragmentation during apoptosis by terminal deoxynucleotidyl transferase (TdT). Digoxygenin was detected by a FTC-conjugated anti-digoxygenin antibody. Analysis was carried out using the fluorescence-activated cell sorter and FITC staining visualized using a fluorescence microscope (Zeiss). […]

HCT 15 CRC cells = test: as above; format: cell-based, human; conditions: HCT 15, pyrrolidinedithiocarbamate 70 μM or vitamin E 3 mM, 24 hours
Description: as §1, §2

endogenous H2O2 = test: Intracellular H2O2 levels by flow cytometry with dihydrorhodamine; format: cell-based, human; conditions: up to 24 hours
Description: FIG. 1C is a bar graph of the hours after test compound treatment versus intracellular H2O2 levels. FIG. 1C illustrates the negative association between intracellular redox status and cell cycle perturbations. Changes in the intracellular redox status were determined by the measurement of endogenous H2O2 levels. Background fluorescence was subtracted from each reading. Values are expressed as corrected DHR mean per 10^4 cells±s.e.m. The percentage of G1 (circle) or apoptotic (TUNEL-positive: square) cells by flow cytometric analysis.
HCT 15 cells were incubated with pyrrolidinedithiocarbamate (70 μM), vitamin E (3 mM), N-acetylcysteine (50 μM) or vitamin C (200 μM) for 24 hours. Endogenous H2O2 levels and cell cycle changes were measured as described in FIG. 1C. […] Values from cells transfected with the empty plasmid were subtracted from those obtained from the catalase-containing cells and were expressed as mean±s.e.m. from duplicate dishes.
Intracellular H2O2 levels were analyzed by flow cytometry using […] (DHR) as a specific fluorescent dye probe [G. Rothe, A. Emmendorffer, A. Oser, J. Roesler, G. Valet, J Immun. […] Cellular rhodamine 123 fluorescence intensity of 1×10^4 cells was measured for each sample using a Becton-Dickenson FACS Vantage flow cytometer with the excitation source at 488 nm and emission wave length of 580 nm. […]

CRC cell = CRC cell plating efficiency; format: cell-based, human; conditions: 25–200 μM (pyrrolidinedithiocarbamate) and 0.1–10 mM (vitamin E), preliminary studies
HCT 116 cells = test: Soft-agar colony formation (anchorage-independent growth)
Description: (§3) FIG. 1A is a graph of the concentration of PDTC versus soft-agar forming units×10^6 HCT 15 and HCT 116 cells (as a percent of control). […] Soft-agar colony formation was measured by seeding HCT 116 or HCT 15 cells in soft agar supplemented with either medium alone (control), or increasing concentrations of pyrrolidinedithiocarbamate (25–200 μM) or vitamin E (0.1–10 mM). Colonies were scored at the end of 10 days incubation at 37° C. Values are representative of three experiments carried out in quadruplicate.
(§4) HCT 116 and HCT 15 cells were seeded in soft agar as described above containing increasing concentrations of either 5-FU (5×10^−8 to 5×10^−5 M) or doxorubicin (1×10^−9 to 1×10^−6 M), in the presence or absence of pyrrolidinedithiocarbamate (70 μM) or vitamin E (3 mM). Colonies were scored after 10 days and IC50 values were calculated as the concentration of 5-FU or doxorubicin required to reduce basal colony formation by 50% (±s.e.m.). Values are representative of three experiments carried out in quadruplicate.

HCT 15 cells [4] = test: as above
Description: as §3, §4

[5] = HCT 116 xenografts, weekly i.p. injections

SMILES | apoptotic index (HCT 15 cells [1]; HCT 15 cells induced to overexpress C/EBPβ) [%] | apoptotic index (HCT 15 cells [1]; HCT 15 cells, absence of C/EBPβ overexpression) [%] | tumor size (HCT 15-derived tumors; HCT 15-derived tumors, after 3 weeks of single agent treatment, before cross-over) | tumor volume compared to saline-treated controls [2, 5] | success rate [3] | increase of apoptotic index (TUNEL) of residual tumors (HCT 15-derived tumors; HCT 15 xenograft model) | increase of apoptotic index (TUNEL) of residual tumors ([2]; HCT 116 xenograft model) | effect of adding the antioxidant to 5-FU on tumor volume ([2]; HCT 116 xenografts, weekly i.p. injections, combined with 5-FU (40 mg/kg)) | accumulation of cells in the G1 peak (HCT 116 CRC cells) | accumulation of cells in the G1 peak (HCT 15 CRC cells) | endogenous H2O2 levels (endogenous H2O2; HCT 15 cells, N-acetylcysteine 50 μM, vitamin C 200 μM) | endogenous H2O2 levels (endogenous H2O2; HCT 116 cells) | CRC cell plating efficiency (CRC cell) | effect on the IC50 of 5-FU and doxorubicin (HCT 116 cells) | anchorage-independent growth (HCT 116 cells; HCT 116 cells, increasing amounts (25–200 μM pyrrolidinedithiocarbamate, 0.1–10 mM vitamin E)) | IC50 (HCT 116 cells; read-out: approximate IC50 in soft agar, HCT 116 cells, soft agar, 10 days) [mM] | effect on the IC50 of 5-FU and doxorubicin (HCT 15 cells [4]) | anchorage-independent growth (HCT 15 cells [4]; HCT 15 cells, increasing amounts (25–200 μM pyrrolidinedithiocarbamate, 0.1–10 mM vitamin E)) | IC50 (HCT 15 cells [4]; read-out: approximate IC50 in soft agar, HCT 15 cells, soft agar, 10 days) [mM]
O=c1[nH]cc(F)c(=O)[nH]1 [5-FU, 5-fluorouracil] | 70 | 20 | 1864+190 mm^3 | significantly reduced tumor volume | 15–20% |  |  |  |  |  |  |  |  |  |  |  |  |  | 
Cc1c(C)c2c(c(C)c1O)CCC(C)(C(=O)O)O2 (centres unmarked) [6-hydroxy-2.5,7,8-tetramethylchroman-2-carboxylic acid] |  |  |  | significantly reduced tumor volume |  | approximately 5 fold | approximately 5 fold | significantly enhanced the effect of 5-FU | induced a significant accumulation of cells in the G1 peak | induced a significant accumulation of cells in the G1 peak | significantly reduced endogenous H2O2 levels | significantly reduced endogenous H2O2 levels | no significant effect on CRC cell plating efficiency | decreased the IC50 for both 5-FU and doxorubicin | dose-dependent reduction in anchorage-independent growth | ~3 | decreased the IC50 for both 5-FU and doxorubicin | dose-dependent reduction in anchorage-independent growth | ~3

Reference: patent publication US7071158B2, “Antioxidant enhancement of therapy for hyperproliferative conditions” (Atherogenics, Inc., priority 1997, dated 2006)
